Key:
[1] = system: Caco-2/HT29-MTX-E12 transwell model; assay: Ferritin formation in intestinal barrier model (bioavailability of iron); type: cell-based, Human
Description: Human Caco-2(enterocytes) and HT29-MTX-E12 (goblet) cells grown on a semi-permeable membrane comprise the intestinal barrier model. The co-cultures were grown on transwells as described below: • Caco-2 cells and HT29-MTX-E12 cells flasks were passaged when ˜90% confluent. • Cells were counted using a haemocytometer (or Coulter counter) to determine cell number/mL. • 0.6 mL growth media (no cells) was added to basolateral chamber of transwells. • 0.2 mL Caco-2/HT29-MTX-E12 cell solution was carefully added into apical chamber to achieve 3.6×104 Caco-2 and 4×10^3 HT29-MTX cells. • Co-cultures were grown on transwells for 21 days with media changed every 2-3 days. • At 21 days transepithelial electric resistance (or TEER) was measured using a Millicell voltohmeter from the apical to basolateral chamber (FIG. 1). These measurements indicate integrity of cell layer ensuring the cells are polarised and an intact barrier is ready for experimentation. […] Treatments were removed, replaced with HBSS, and incubated overnight. • After 16-18 hours cells (on apical side) were washed with PBS before trypsin was applied to remove cells from transwell membranes. • Cells were collected by centrifuging for 5 minutes. • Abcam ferritin assay was conducted according to manufacturer's instructions.
Results from the ferritin assay were analysed for significant differences using unpaired t tests. Differences were deemed significant when P<0.05. All statistical analyses were performed using GraphPad Prism 5 software.
All samples treatments were performed in the presence of 80 μM ascorbic acid.

[2] = Differential scanning fluorometry (DSF) thermal denaturation of clarified phycoerythrin; type: physicochemical; conditions: heated 25-95° C. at 0.5° C./10 sec
Description: (§1) Therefore, to gain a precise measurement of the thermal denaturation temperature of phycoerythrin, differential scanning fluorometry (DSF) was undertaken by heating 100 uL of clarified phycoerythrin from 25-95° C. by increasing the temperature by 0.5° C./10 sec.

[3] = Iron binding by fluorescence emission scan; conditions: 1 mg/mL protein, 0-32 mM iron chloride, excitation 498 nm
Description: Phycoerythrin extract from Example 1 (extraction included ultrasound treatment) was dissolved at a concentration of 2 mg/mL in 20 mM sodium phosphate buffer, pH 7 containing 0.02% sodium azide. Iron (II) chloride was dissolved in the same buffer at an initial concentration of 100 mM. The dissolved phycoerythrin extract was mixed 1:1 with a concentration series of iron chloride to give a final protein concentration of 1 mg/mL and final iron chloride concentrations of 0, 0.25, 0.5, 1, 2, 4, 8, 16 and 32 mM.
A fluorescence emission scan from 515-700 nm using an excitation wavelength of 498 nm was then performed on all samples using a Thermofisher Varioskan Flash (Instrument version 4.00.52). R-phycoerythrin has an emission maximum of 575 nm and therefore if iron binding occurs with the linear tetrapyrrole moiety of the protein, a change in fluorescence will be observed.

[4] = Heating of phycoerythrin extracts, colour change visualised; type: physicochemical
Description: First, the crude, homogenised phycoerythrin, before clarification, was heated at 95° C. for 5 min and the colour change visualised.
as §1
Thermal denaturation of each Phycoerythrin sample (a)-(d) was undertaken. The results are depicted in FIG. 4.

[5] = 25 μM Fe solutions, with 4 mg/mL phycoerythrin, 80 μM ascorbic acid
[6] = 25 μM Fe solutions, with 8 mg/mL phycoerythrin, 80 μM ascorbic acid
[7] = 25 μM Fe solutions, without phycoerythrin, 80 μM ascorbic acid
[8] = 25 μM iron, co-treatment with 4 or 8 mg/mL phycoerythrin
[9] = 50 μM Fe solutions, with 4 mg/mL phycoerythrin, 80 μM ascorbic acid
[10] = 50 μM Fe solutions, with 8 mg/mL phycoerythrin, 80 μM ascorbic acid
[11] = 50 μM Fe solutions, without phycoerythrin, 80 μM ascorbic acid

Compound	Ferritin [1, 5]	Ferritin [1, 6]	Ferritin [1, 7]	Ferritin production compared to cells only treated with the iron solution [1, 8]	Ferritin [1, 9]	Ferritin [1, 10]	Ferritin [1, 11]	Ferritin production compared to cells only treated with the iron solution ([1]; 50 μM iron, co-treatment with 4 mg/mL phycoerythrin)	Thermal denaturation temperature where phycoerythrin loses its fluorescence [2]	Change of fluorescence emission with iron [3]	Colour change upon heating ([4]; 60° C. and 70° C. for 1 hour)	Colour change upon heating ([4]; crude, homogenised, before clarification, 95° C. for 5 min)	Ferritin ([1]; No Fe, 4 mg/mL phycoerythrin (section of 25 μM Fe solutions))	Ferritin ([1]; No Fe, 8 mg/mL phycoerythrin (section of 25 μM Fe solutions))	Ferritin ([1]; No Fe, 8 mg/mL phycoerythrin (section of 50 μM Fe solutions))	Ferritin production compared to treatment with iron solutions ([1]; only 4 mg/mL phycoerythrin, no added iron)	Ferritin production compared to treatment with ferric chloride ([1]; only 8 mg/mL phycoerythrin, no added iron)
[Cl][Fe][Cl] [Fe (II) chloride, Iron (II) chloride]	15.8 ± 1.7 ng/mL	13.9 ± 1.8 ng/mL	4.4 ± 1.0 ng/mL	significantly improved ferritin production	10.1 ± 3.5 ng/mL	16.0 ± 5.9 ng/mL	5.2 ± 1.6 ng/mL	–	–	–	–	–	–	–	–	–	–
[Cl][Fe]([Cl])[Cl] [Fe (III) chloride, Iron (III) chloride]	12.7 ± 0.9 ng/mL	12.7 ± 1.1 ng/mL	3.3 ± 0.5 ng/mL	significantly improved ferritin production	13.0 ± 3.1 ng/mL	1.8 ± 0.6 ng/mL	1.7 ± 0.8 ng/mL	significantly improved ferritin production	–	–	–	–	–	–	–	–	–
phycoerythrin	–	–	–	–	–	–	–	–	77 °C	decrease in phycoerythrin fluorescence with increasing iron concentration	no colour change	turned from red to brown	12.2 ± 0.3 ng/mL	7.5 ± 1.6^ ng/mL	2.5 ± 0.4 ng/mL	significantly increased ferritin production	significantly increased ferritin

From US20240268421A1, “FOOD COLOURING AGENTS” (v2food Pdy Ltd, priority 2020, published 2024)
